Measurements taken from patent US20260345619A1 (Principia Biopharma Inc., priority 2023, published 2026).

Assay: Loss of asthma control (LOAC) events, 12-week ICS/LABA withdrawal study
Type: in vivo, human
Excerpt: The general construct of this 12-week Loss of Asthma Control (LOAC) study consisted of a 4-week standardized ICS/LABA background therapy stabilization phase, a 4or 5-week background therapy withdrawal phase and a 3- or 4-week no background therapy phase, followed by a 4-week post IMP treatment safety follow-up period at the beginning of which, pre-screening asthma controller medications are restarted. Participants had access to short-acting β-agonist (SABA) reliever medication at all times during the protocol.
The primary endpoint was the proportion of patients with LOAC. The key secondary endpoint for the study was change in pre-bronchodilator FEV1 from baseline at EOT.
The primary endpoint was proportion of participants with LOAC during the 12-week treatment period.
Note that if the number of participants in some regions was too low, these regions may have been pooled with other regions. This strategy also applied to all the rest of the analyses where region was one of the covariates.
To assess the consistency in treatment effects across different subgroup levels, subgroup analyses were to be performed for the primary efficacy endpoint with respect to age group, gender, region, and other factors.
Secondary endpoints included pre-bronchodilator FEV1 change from baseline at EOT, ACQ-5 score change from baseline, and AQLQ score change from baseline. Other secondary and exploratory endpoints are described in Table 2.

[1] = 400 mg TID cohort, N = 64, mITT
[2] = 400 mg TID cohort, age <45 years, n = 25
[3] = 400 mg TID cohort, age ≥45 years, n = 39
[4] = 400 mg TID cohort, baseline BMI <25 kg/m^2, n = 12
[5] = 400 mg TID cohort, baseline BMI ≥25-<30 kg/m^2, n = 29
[6] = 400 mg TID cohort, baseline BMI ≥30 kg/m^2, n = 23
[7] = 400 mg TID cohort, baseline weight <60 kg, n = 2
[8] = 400 mg TID cohort, baseline weight ≥60-<90 kg, n = 41
[9] = 400 mg TID cohort, baseline weight ≥90 kg, n = 21
[10] = 400 mg TID cohort, female, n = 39
[11] = 400 mg TID cohort, male, n = 25
[12] = 400 mg TID, N=64, 12 weeks, mITT
[13] = 400 mg TID, 1 exacerbation within 2 years
[14] = 400 mg TID, 2 exacerbations within 2 years
[15] = 400 mg TID, FEV1 reversibility <12 %
[16] = 400 mg TID, FEV1 reversibility ≥12 %
[17] = 400 mg TID, age at onset <12 years
[18] = 400 mg TID, age at onset <18 years
[19] = 400 mg TID, age at onset ≥18-<40 years
[20] = 400 mg TID, age at onset ≥18 years
[21] = 400 mg TID, age at onset ≥40 years

## CC(C)(C=C(C#N)C(=O)N1CCC[C@@H](n2nc(-c3ccc(Oc4ccccc4)cc3F)c3c(N)ncnc32)C1)N1CCN(C2COC2)CC1 (mixture of isomers) [rilzabrutinib, (R)-2-[3-[4-amino-3-(2-fluoro-4-phenoxy-phenyl)pyrazolo[3,4-d]pyrimidin-1-yl]piperidine-1-carbonyl]-4-methyl-4-[4-(oxetan-3-yl)piperazin-1-yl]pent-2-enenitrile]
[1]
  Intervention discontinuation due to lack of efficacy or an AE related to asthma worsening, number: 1
  Intervention discontinuation due to lack of efficacy or an AE related to asthma worsening, percentage: (1.6)
  Number of participants requiring hospitalization or emergency room visit: 0
  Number of participants with LOAC: Yes: 12
  Number of participants with increase in ICS ≥4 times the last prescribed ICS dose (or ≥50% of the prescribed ICS dose at baseline if background therapy withdrawal completed): 0
  Number of participants with ≥6 additional reliever puffs of salbutamol/albuterol or levosalbutamol/levalbuterol in a 24 hour period (compared with baseline) on 2 consecutive days: 0
  Number of participants with ≥30% reduction from baseline in AM PEF on 2 consecutive days: 10
  Participants with LOAC not triggered by use of rescue medication, number: 10
  Participants with LOAC not triggered by use of rescue medication, percentage: (15.6)
  Participants with LOAC triggered by use of rescue medication, number: 1
  Participants with LOAC triggered by use of rescue medication, percentage: (1.6)
  Percentage of participants with LOAC: No: (81.3)
  Percentage of participants with LOAC: Yes: (18.8)
  Percentage of participants with ≥30% reduction from baseline in AM PEF on 2 consecutive days: (15.6)
400 mg TID cohort, Western Countries, n = 2
  LOAC incidence, number of participants: 0
[2]
  LOAC incidence, number of participants: 2
  LOAC incidence, percentage: (8.0)
400 mg TID cohort, age <45 years, 95% CI (0.028, 0.725)
  LOAC OR vs. placebo: 0.142
400 mg TID cohort, age <45 years, 95% CI (−0.505, −0.093)
  LOAC RD vs. placebo: −0.299
[3]
  LOAC incidence, number of participants: 10
  LOAC incidence, percentage: (25.6)
400 mg TID cohort, age ≥45 years, 95% CI (0.408, 3.236)
  LOAC OR vs. placebo: 1.149
400 mg TID cohort, age ≥45 years, 95% CI (−0.165, 0.216)
  LOAC RD vs. placebo: 0.026
[4]
  LOAC incidence, number of participants: 3
  LOAC incidence, percentage: (25.0)
400 mg TID cohort, baseline BMI <25 kg/m^2, 95% CI (0.121, 2.801)
  LOAC OR vs. placebo: 0.583
400 mg TID cohort, baseline BMI <25 kg/m^2, 95% CI (−0.431, 0.203)
  LOAC RD vs. placebo: −0.114
[5]
  LOAC incidence, number of participants: 3
  LOAC incidence, percentage: (10.3)
400 mg TID cohort, baseline BMI ≥25-<30 kg/m^2, 95% CI (0.064, 1.172)
  LOAC OR vs. placebo: 0.274
400 mg TID cohort, baseline BMI ≥25-<30 kg/m^2, 95% CI (−0.398, 0.012)
  LOAC RD vs. placebo: −0.193
[6]
  LOAC incidence, number of participants: 6
  LOAC incidence, percentage: (26.1)
400 mg TID cohort, baseline BMI ≥30 kg/m^2, 95% CI (0.313, 5.604)
  LOAC OR vs. placebo: 1.324
400 mg TID cohort, baseline BMI ≥30 kg/m^2, 95% CI (−0.206, 0.307)
  LOAC RD vs. placebo: 0.050
[7]
  LOAC incidence, number of participants: 1
  LOAC incidence, percentage: (50.0)
400 mg TID cohort, baseline weight <60 kg, 95% CI (0.140, 64.262)
  LOAC OR vs. placebo: 3.000
400 mg TID cohort, baseline weight <60 kg, 95% CI (−0.485, 0.985)
  LOAC RD vs. placebo: 0.250
[8]
  LOAC incidence, number of participants: 8
  LOAC incidence, percentage: (19.5)
400 mg TID cohort, baseline weight ≥60-<90 kg, 95% CI (0.182, 1.392)
  LOAC OR vs. placebo: 0.503
400 mg TID cohort, baseline weight ≥60-<90 kg, 95% CI (−0.319, 0.059)
  LOAC RD vs. placebo: −0.130
[9]
  LOAC incidence, number of participants: 3
  LOAC incidence, percentage: (14.3)
400 mg TID cohort, baseline weight ≥90 kg, 95% CI (0.095, 2.645)
  LOAC OR vs. placebo: 0.500
400 mg TID cohort, baseline weight ≥90 kg, 95% CI (−0.367, 0.153)
  LOAC RD vs. placebo: −0.107
[10]
  LOAC incidence, number of participants: 8
  LOAC incidence, percentage: (20.5)
400 mg TID cohort, female, 95% CI (0.224, 1.828)
  LOAC OR vs. placebo: 0.640
400 mg TID cohort, female, 95% CI (−0.291, 0.123)
  LOAC RD vs. placebo: −0.084
[11]
  LOAC incidence, number of participants: 4
  LOAC incidence, percentage: (16.0)
400 mg TID cohort, male, 95% CI (0.091, 1.966)
  LOAC OR vs. placebo: 0.423
[12]
  participants without LOAC, number: 52
  participants without LOAC, percent: (81.3)
400 mg TID, N=64, 12 weeks, mITT, placebo 20
  participants with LOAC, number: 12
400 mg TID, N=64, 12 weeks, mITT, placebo […]
  participants with LOAC, percent: 18.8%
400 mg TID, mITT
  RRR vs. placebo (%), LOAC: 34.7%
400 mg TID, mITT, 95% CI 0.348, 1.226
  RR vs. placebo, LOAC: 0.653
400 mg TID, mITT, 95% CI −0.238, 0.061
  RD (risk difference) vs. placebo, LOAC: −0.088
[13]
  OR vs. placebo: 0.323
  RD vs. Placebo: −0.194
[14]
  LOAC, number: 7
  OR vs. placebo: 1.896
  RD vs. Placebo: 0.117
400 mg TID, >2 exacerbations within 2 years
  LOAC, number: 0
[15]
  LOAC, number: 9
  OR vs. placebo: 0.643
  RD vs. Placebo: −0.082
[16]
  LOAC, number: 1
  OR vs. placebo: 0.417
  RD vs. Placebo: −0.090
[17]
  LOAC, number: 2
  OR vs. placebo: 0.250
  RD vs. Placebo: −0.257
[18]
  LOAC, number: 2
  OR vs. placebo: 0.218
  RD vs. Placebo: −0.245
400 mg TID, age at onset ≥12-<18 years
  LOAC, number: 0
[19]
  LOAC, number: 6
  OR vs. placebo: 0.514
  RD vs. Placebo: −0.135
[20]
  LOAC, number: 10
  OR vs. placebo: 0.769
  RD vs. Placebo: −0.049
[21]
  LOAC, number: 4
  OR vs. placebo: 1.619
  RD vs. Placebo: 0.072
400 mg TID, all others than low EOS and low FeNO
  LOAC, number: 8
